Test [1] in a line: Stabilization of i-motif DNA (unknown origin) at 22.5 uM at pH 4 to 6 by CD-spectra analysis.
The nature of test [2]: Stabilization of i-motif DNA (unknown origin) assessed as change in melting temperature at 22.5 uM at pH 6 in presence of DC5 by UV-based analysis.
Test [3] can be described thus: Stabilization of i-motif DNA (unknown origin) assessed as change in melting temperature at 22.5 uM at pH 5.5 in presence of DC5 by UV-based analysis.
Test [4] can be described thus: Stabilization of i-motif DNA (unknown origin) assessed as change in melting temperature at 22.5 uM at pH 4.5 in presence of DC5 by UV-based analysis.
Test [5] is described as follows: Stabilization of i-motif DNA (unknown origin) assessed as change in melting temperature at 22.5 uM at pH 5 in presence of DC5 by UV-based analysis.

Each structure is given as a SMILES string. Active and inactive are the calls of the source. The calls are words filed in the database; no cut-off is given here.

Regarding `CC(=O)NCCN1C[C@@H](n2ccc(N)nc2=O)C[C@H]1C(=O)NCCN1C[C@@H](n2ccc(N)nc2=O)C[C@H]1C(=O)NCCN1C[C@@H](n2ccc(N)nc2=O)C[C@H]1C(=O)NCCN1C[C@@H](n2ccc(N)nc2=O)C[C@H]1C(=O)NCCN1C[C@@H](n2ccc(N)nc2=O)C[C@H]1C(=O)NCCC(N)=O`, the result in test [1] was Active. Further, the ΔTm – broadly, the shift of the melting midpoint relative to a reference – in test [2] came out at 13.2 °C; in test [3] it was 8.85 °C; in test [4], 15.3 °C; in test [5], 17.9 °C.

(Values after ChEMBL document CHEMBL4184162, “Hybrid DNA i-motif: Aminoethylprolyl-PNA (pC5) enhance the stability of DNA (dC5) i-motif structure” (Bioorg Med Chem Lett, 2017).)
